The record followed here is ChEMBL document CHEMBL1128019, “Gem-disubstituted amino-ether based substance p antagonists” (Bioorg Med Chem Lett, 1994).

The assay addresses Substance-P receptor (Homo sapiens, UniProt P25103). In words: Binding affinity for human NK1 receptor expressed in CHO cells. In kind it is cell-based.

Substance-P receptor, sequence (P25103 whole entry): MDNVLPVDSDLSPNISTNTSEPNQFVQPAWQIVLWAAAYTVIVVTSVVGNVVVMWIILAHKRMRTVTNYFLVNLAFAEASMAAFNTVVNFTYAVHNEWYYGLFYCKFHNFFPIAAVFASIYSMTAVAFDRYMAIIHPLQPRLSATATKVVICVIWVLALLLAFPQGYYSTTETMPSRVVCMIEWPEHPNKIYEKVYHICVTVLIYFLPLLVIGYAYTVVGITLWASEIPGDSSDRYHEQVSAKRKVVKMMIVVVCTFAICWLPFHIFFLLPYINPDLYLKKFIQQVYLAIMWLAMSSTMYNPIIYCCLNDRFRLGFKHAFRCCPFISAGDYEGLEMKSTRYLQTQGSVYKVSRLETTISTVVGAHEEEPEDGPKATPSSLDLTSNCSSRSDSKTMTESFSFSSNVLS

On to `FC(F)(F)c1cc(COC[C@]2(c3ccccc3)CCCCN2)cc(C(F)(F)F)c1`, for which the IC50 (in general, the midpoint of a concentration-inhibition curve) is 1 nM.

`FC(F)(F)c1cc(COC[C@]2(c3ccccc3)CCCN2)cc(C(F)(F)F)c1` displayed an IC50 of 20 nM.
